From article PMC6803965, “A New Class of β–Pyrrolidino-1,2,3-Triazole Derivatives as β-Adrenergic Receptor Inhibitors: Synthesis, Pharmacological, and Docking Studies” (Molecules, 2019)
≈ marks a conversion by molar mass, not a printed value. Like-named read-outs stand apart in the source and are kept apart here.

Assays:
[1] = test system: Candida albicans; experiment: Antimicrobial well method, zone of inhibition; format: cell-based; conditions: 1 mg/well
Experimental: (§1) Antimicrobial activity was carried out as described previously. Briefly, 20 mL of sterile Mueller Hinton agar (MHA) was poured in the petri plates and kept for solidification. After solidification, the test cultures were swabbed on the top of the media and kept for 10 min to dry. The required concentration (1 mg/well) of synthesized compounds 5a–l was added to each well and left for 30 min at RT for compound diffusion. Ketoconazole (fungi) and streptomycin (bacteria) used for positive controls. The zone of inhibition was recorded in mm and the experiment was repeated twice.

[2] = test system: Enterobacter aerogenes; experiment: Antimicrobial well method, zone of inhibition; format: cell-based; conditions: Klebsiella aerogenes
Experimental: as §1

[3] = test system: Klebsiella pneumoniae; experiment: Antimicrobial well method, zone of inhibition; format: cell-based
Experimental: as §1

[4] = test system: Micrococcus luteus; experiment: Antimicrobial well method, zone of inhibition; format: cell-based
Experimental: as §1

[5] = test system: Proteus vulgaris; experiment: Antimicrobial well method, zone of inhibition; format: cell-based
Experimental: as §1

[6] = test system: Salmonella paratyphi-B; experiment: Antimicrobial well method, zone of inhibition; format: cell-based
Experimental: as §1

[7] = test system: Salmonella typhimurium; experiment: Antimicrobial well method, zone of inhibition; format: cell-based; conditions: Salmonella enterica
Experimental: as §1

[8] = test system: Shigella flexneri; experiment: Antimicrobial well method, zone of inhibition; format: cell-based
Experimental: as §1

[9] = test system: Staphylococcus aureus-MRSA; experiment: Antimicrobial well method, zone of inhibition; format: cell-based
Experimental: as §1

[10] = test system: Staphylococcus aureus; experiment: Antimicrobial well method, zone of inhibition; format: cell-based
Experimental: as §1

[11] = test system: Staphylococcus epidermidis; experiment: Antimicrobial well method, zone of inhibition; format: cell-based
Experimental: as §1

[12] = test system: Enterobacter aerogenes; experiment: Minimum inhibitory concentration (MIC); format: cell-based; conditions: Klebsiella aerogenes, read-out: Minimum inhibitory concentration
Experimental: (§2) The MIC experiment was carried out according to the standard reference methods. Briefly, the required concentrations of synthesized compounds 5a–l were dissolved in DMSO (Dimethylsulfoxide) in concentrations of 500 µg/mL, 250 µg/mL, 125 µg/mL, 62.5 µg/mL, 31.25 µg/mL, 15.6 µg/mL, and […]. An inoculum of 100 µL from each well (96-well plate) was inoculated. For the positive control, ketoconazole (fungi) and streptomycin (bacteria) was used. The MIC values for the tested bacteria were identified as the lowest inhibiting concentration of compound on the agar plate in visual growth.

[13] = test system: Klebsiella pneumoniae; experiment: Minimum inhibitory concentration (MIC); format: cell-based; conditions: read-out: Minimum inhibitory concentration
Experimental: as §2

[14] = test system: Micrococcus luteus; experiment: Minimum inhibitory concentration (MIC); format: cell-based; conditions: read-out: Minimum inhibitory concentration
Experimental: as §2

[15] = test system: Proteus vulgaris; experiment: Minimum inhibitory concentration (MIC); format: cell-based; conditions: read-out: Minimum inhibitory concentration
Experimental: as §2

[16] = test system: Salmonella paratyphi-B; experiment: Minimum inhibitory concentration (MIC); format: cell-based
Experimental: as §2

[17] = test system: Salmonella typhimurium; experiment: Minimum inhibitory concentration (MIC); format: cell-based; conditions: Salmonella enterica, read-out: Minimum inhibitory concentration
Experimental: as §2

[18] = test system: Shigella flexneri; experiment: Minimum inhibitory concentration (MIC); format: cell-based
Experimental: as §2

[19] = test system: Staphylococcus aureus-MRSA; experiment: Minimum inhibitory concentration (MIC); format: cell-based; conditions: read-out: Minimum inhibitory concentration
Experimental: as §2

[20] = test system: Staphylococcus aureus; experiment: Minimum inhibitory concentration (MIC); format: cell-based; conditions: read-out: Minimum inhibitory concentration
Experimental: as §2

[21] = test system: Staphylococcus epidermidis; experiment: Minimum inhibitory concentration (MIC); format: cell-based; conditions: read-out: Minimum inhibitory concentration
Experimental: as §2

[22] = test system: A549 cells; experiment: Cytotoxicity, aqueous one solution reagent; format: cell-based; conditions: for IC50: Homo sapiens, 24 h treatment, read-out: IC50 against A549
Experimental: (§3) The cytotoxic study was carried out as reported previously. Briefly, IMR90, HepG-2, and A549 cells were grown in DMEM (Dulbecco’s Modified Eagle Medium) that contained 10% fetal bovine serum and 1% antibiotics. A total of 15 × 10^3 cells/well were seeded in 96-well plates and incubated under humidified conditions. Cells were treated with varying concentrations of synthesized triazoles for 24 h. After a 24 h treatment, 20 µL aqueous one solution reagent was added to each well and incubated for 3–4 h under a humidified condition. For IMR90 cells, MTT (MTT = 3-(4,5-dimethyl-2-thiazolyl)-2,5-diphenyl-2H-tetrazolium bromide) (5 mg/mL) was added and incubated for 3–4 h in the dark. After incubation, 100 µL of a 10% SDS (Sodium Dodecyl Sulfate) solution (0.01% HCl) was added to each well. The data was taken using an ELISA (enzyme-linked immunosorbent assay) reader at the absorbance of 490 nm for HepG-2 and A549 cells and 570 nm for IMR90 cells. The cell death was calculated using the following formula: Inhibition (%) = ((A − B)/A) × 100 (A—control group, B—treated group).

[23] = test system: HepG-2 cells; experiment: Cytotoxicity, aqueous one solution reagent; format: cell-based; conditions: for IC50: Homo sapiens, HepG2, 24 h treatment, read-out: IC50 against HepG-2
Experimental: as §3

[24] = test system: IMR90 cells; experiment: Cytotoxicity on normal cells, MTT; format: cell-based; conditions: IMR-90, human normal IMR90 cells, 24 h treatment, read-out: IC50 against IMR90
Experimental: as §3

[25] = test system: tested bacteria; experiment: Antimicrobial well method, result in words; format: cell-based; conditions: 1 mg/mL concentration
Experimental: as §1

[26] = test system: Malassezia pachydermatis; experiment: Antimicrobial well method, zone of inhibition; format: cell-based
Experimental: as §1

| SMILES | zone of inhibition at 1 mg/well [2] [mm] | zone of inhibition at 1 mg/well [3] [mm] | zone of inhibition at 1 mg/well [4] [mm] | zone of inhibition at 1 mg/well [5] [mm] | zone of inhibition at 1 mg/well [6] [mm] | zone of inhibition at 1 mg/well [7] [mm] | zone of inhibition at 1 mg/well [8] [mm] | zone of inhibition at 1 mg/well [9] [mm] | zone of inhibition at 1 mg/well [10] [mm] | zone of inhibition at 1 mg/well [11] [mm] | MIC [13] [µg/mL] | MIC [14] [µg/mL] | MIC [15] [µg/mL] | MIC [16] [µg/mL] | MIC [18] [µg/mL] | MIC [20] [µg/mL] | MIC [21] [µg/mL] | cytotoxic / anticancer activity against A549 cells [22] | IC50 [22] [µM] | IC50 [23] [µM] | also measured |
| --- | --- | --- | --- | --- | --- | --- | --- | --- | --- | --- | --- | --- | --- | --- | --- | --- | --- | --- | --- | --- | --- |
| C[C@@H]([C@@H](c1ccccc1)n1cc(COC(=O)c2ccc([N+](=O)[O-])cc2)nn1)N1CCCC1 [5g, (1R,2S)-(1-(1-Phenyl-2-(pyrrolidin-1-yl)propyl)-1H-1,2,3-triazol-4-yl)methyl 4-nitrobenzoate] | 22 | 24 | 17 | 26 | 20 | 22 | 25 | 24 | 16 | 28 | 31.2 (≈ 71.8 µM) | 125 (≈ 287 µM) | 31.2 (≈ 71.8 µM) | 62.5 (≈ 144 µM) | 31.2 (≈ 71.8 µM) | 125 (≈ 287 µM) | 31.2 (≈ 71.8 µM) | promising anticancer activity | 72 ± 3.21 | > 300 | zone of inhibition [1]: 13 mm; MIC [12]: 62.5 µg/mL (≈ 144 µM); MIC ([17]; TYPHIMURIUM): 62.5 µg/mL (≈ 144 µM); MIC ([19]; Staphylococcus, MRSA): 31.2 µg/mL (≈ 71.8 µM); IC50 [24]: > 250 µM; antimicrobial activity against tested bacteria [25]: promising activity |
| COc1ccc(C(=O)OCc2cn([C@H](c3ccccc3)[C@H](C)N3CCCC3)nn2)cc1OC [5h, (1R,2S)-(1-(1-Phenyl-2-(pyrrolidin-1-yl)propyl)-1H-1,2,3-triazol-4-yl)methyl-3,4-dimethoxy-benzoate] | 17 | 20 | 14 | 23 | 19 | 22 | 18 | 20 | 15 | 16 | 62.5 (≈ 139 µM) | 250 (≈ 555 µM) | 62.5 (≈ 139 µM) | 62.5 (≈ 139 µM) | 125 (≈ 277 µM) | 250 (≈ 555 µM) | 125 (≈ 277 µM) | promising anticancer activity | 58 ± 2.31 | 73 ± 3.88 | MIC [12]: 125 µg/mL (≈ 277 µM); MIC ([17]; TYPHIMURIUM): 62.5 µg/mL (≈ 139 µM); MIC ([19]; Staphylococcus, MRSA): 62.5 µg/mL (≈ 139 µM); IC50 [24]: > 250 µM; antimicrobial activity against tested bacteria [25]: promising activity |
| CC(C(c1ccccc1)n1cc(COC(=O)c2ccc(C(C)(C)C)cc2)nn1)N1CCCC1 [5i, (1R,2S)-(1-(1-Phenyl-2-(pyrrolidin-1-yl)propyl)-1H-1,2,3-triazol-4-yl)methyl 4-tert-butyl benzoate] | 14 | 12 | 16 |  | 12 |  | 14 | 14 | 16 | 11 | 500 (≈ 1120 µM) | 125 (≈ 280 µM) |  | 500 (≈ 1120 µM) | 250 (≈ 560 µM) | 125 (≈ 280 µM) | 500 (≈ 1120 µM) | promising anticancer activity | 134 ± 1.05 | 197 ± 2.34 | zone of inhibition [1]: 12 mm; zone of inhibition at 1 mg/well [26]: 10 mm; MIC ([12]; Enterobacter aerogenes): 250 µg/mL (≈ 560 µM); MIC ([19]; Staphylococcus aureus-MRSA): 250 µg/mL (≈ 560 µM); cytotoxic activity against HepG-2 cells [23]: moderate activity; IC50 [24]: > 250 µM |
| Cc1cccc(C(=O)OCc2cn([C@H](c3ccccc3)[C@H](C)N3CCCC3)nn2)c1 [5j, (1R,2S)-(1-(1-Phenyl-2-(pyrrolidin-1-yl)propyl)-1H-1,2,3-triazol-4-yl)methyl 3-methylbenzoate] |  | 22 | 16 | 20 | 18 | 20 | 22 | 14 | 15 | 14 | 62.5 (≈ 155 µM) | 125 (≈ 309 µM) | 62.5 (≈ 155 µM) | 125 (≈ 309 µM) | 62.5 (≈ 155 µM) | 250 (≈ 618 µM) | 250 (≈ 618 µM) | promising anticancer activity | 111 ± 1.82 | > 300 | zone of inhibition [1]: 13 mm; zone of inhibition at 1 mg/well [26]: 11 mm; MIC ([17]; TYPHIMURIUM): 62.5 µg/mL (≈ 155 µM); MIC ([19]; Staphylococcus aureus-MRSA): 250 µg/mL (≈ 618 µM); IC50 [24]: > 250 µM; antimicrobial activity against tested bacteria [25]: promising activity |
| C[C@@H]([C@@H](c1ccccc1)n1cc(COC(=O)c2ccccc2Cl)nn1)N1CCCC1 [5k, (1R,2S)-(1-(1-Phenyl-2-(pyrrolidin-1-yl)propyl)-1H-1,2,3-triazol-4-yl)methyl 2-chlorobenzoate] | 22 | 14 |  | 16 | 18 | 15 | 17 | 17 | 18 |  | 250 (≈ 588 µM) |  | 125 (≈ 294 µM) | 125 (≈ 294 µM) | 125 (≈ 294 µM) | 125 (≈ 294 µM) |  |  |  |  | MIC ([12]; Enterobacter aerogenes): 62.5 µg/mL (≈ 147 µM); MIC ([17]; Salmonella typhimurium): 250 µg/mL (≈ 588 µM); MIC ([19]; Staphylococcus, MRSA): 125 µg/mL (≈ 294 µM); antimicrobial activity against tested bacteria [25]: promising activity; melting point: 101 to 102 °C |
